The assay has as its target CDK2/Cyclin E1 (Homo sapiens, UniProt P24941). Put plainly: CDK2/Cyclin E1 Caliper LabChip EZ Reader mobility shift assay. The class given is biochemical. Also noted: purchased Eurofins 14-475. The following applies: read-out: Caliper Assay (CDK2/CCNE1): IC50. Summed up: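 Mobility-shift kinase assay: compound titrations preincubated 30 min with enzyme and ATP, reaction started with 5-FAM-QSPKKG-CONH2 peptide. Final 2.5 nM CDK2/Cyclin E1, 100 μM ATP, 1.5 μM peptide, HEPES pH 7.5; stopped with EDTA after 100 min. IC50 from four-parameter fit of normalized conversion ratio.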

As for `CC1(C)C[C@@H]1C(=O)N1CC2(CN(C(=O)c3cnn(Cc4ccccc4)c3)C[C@H]2C(=O)N[C@H]2CCN(C3CC3)C2=O)C1` [I-243], the IC50 was > 10000 nM.

Regarding `CC1(C)C[C@@H]1C(=O)N1CC2(CN(C(=O)c3cnn(Cc4ccccc4)c3)C[C@H]2C(=O)N[C@H]2CCCN(CC3CCCCC3)C2)C1` [I-183], the IC50 was > 10000 nM.

Turning to `CNC(=O)[C@@H](NC(=O)[C@@H]1CN(C(=O)c2cnn(Cc3ccccc3)c2)CC12CN(C(=O)[C@H]1CC1(C)C)C2)[C@@H](C)N(CC1CCCCC1)C(C)=O` [I-273, (S)-6-(1-benzyl-1H-pyrazole-4-carbonyl)-N-((2S,3R)-3-(N-(cyclohexylmethyl)acetamido)-1-(methylamino)-1-oxobutan-2-yl)-2-((S)-2,2-dimethylcyclopropane-1-carbonyl)-2,6-diazaspiro[3.4]octane-8-carboxamide], the IC50 is > 10000 nM.

As for `CNC(=O)[C@@H](NC(=O)[C@@H]1CN(C(=O)c2cncs2)CC12CN(CC1CCCC1)C2)[C@@H](C)OCC12CCC(CC1)OC2` [I-344, (S)—N-((2S,3R)-3-(2-oxabicyclo[2.2.2]octan-4-ylmethoxy)-1-(methylamino)-1-oxobutan-2-yl)-2-(cyclopentylmethyl)-6-(thiazole-5-carbonyl)-2,6-diazaspiro[3.4]octane-8-carboxamide], the IC50 was > 10000 nM.

Regarding `CNC(=O)[C@@H](NC(=O)[C@@H]1CN(C(=O)c2cnn(CC3CCOCC3)c2)CC12CN(C(=O)[C@H]1CC1(C)C)C2)[C@@H](C)OCC1CCCCC1` [I-121A], the IC50 was in the range of 10 to 100 nM.

For the compound `COC[C@H]1CCCN(C(=O)[C@H](C)NC(=O)[C@@H]2CN(C(=O)c3cncs3)CC23CN(C(=O)[C@H]2CC2(C)C)C3)C1` [I-325], the IC50 fell in the range of 1000 to 10000 nM.

Take `CNC(=O)[C@@H](NC(=O)[C@H]1CN(C(=O)c2cnn(CC3CCN(C(C)=O)CC3)c2)CC12CN(C(=O)[C@H]1CC1(C)C)C2)[C@@H](C)OCc1ccccc1` [I-17B]: the IC50 was > 10000 nM.

On to `C[C@@H](OCc1ccccc1)[C@H](NC(=O)C1CN(C(=O)c2cnn(Cc3ccccc3)c2)CC12CN(C(=O)[C@H]1CC1(C)C)C2)C(=O)N1CCOCC1` (stereo partly drawn) [I-86], for which the IC50 fell in the range of 10 to 100 nM.

Regarding `CNC(=O)[C@@H](NC(=O)[C@@H]1CN(C(=O)c2cncs2)CC12CN(CC(C)(C)C)C2)[C@@H](C)OCC12CCC(CC1)OC2` [I-347], the IC50 is > 10000 nM.

Take `CC1(C)C[C@@H]1C(=O)N1CC2(CN(C(=O)c3cnn(Cc4ccccc4)c3)C[C@H]2C(=O)N[C@@H]2CCCN(CC3CCCCC3)C2)C1` [I-212]: the IC50 is 1000 to 10000 nM.

Turning to `CNC(=O)[C@@H](NC(=O)[C@@H]1CN(C(=O)c2cnn(Cc3ccccc3)c2)CC12CN(C(=O)[C@H]1CC1(C)C)C2)[C@@H](C)OCc1ccccc1O` [I-251], the IC50 was 100 to 1000 nM.

On to `C[C@@H](OCC1CCCCC1)[C@H](NC(=O)[C@@H]1CN(C(=O)c2cnn(Cc3ccccc3)c2)CC12CN(C(=O)[C@H]1CC1(C)C)C2)C(=O)N1CCOCC1` [I-152A], for which the IC50 is ≤ 10 nM.

Regarding `CNC(=O)[C@@H](NC(=O)[C@@H]1CN(C(=O)Nc2cnn(Cc3ccccc3)c2)CC12CN(C(=O)[C@H]1CC1(C)C)C2)[C@@H](C)OCc1ccccc1` [I-48A, (S)—N6-(1-benzyl-1H-pyrazol-4-yl)-N8-((2S,3R)-3-(benzyloxy)-1-(methylamino)-1-oxobutan-2-yl)-2-((S)-2,2-dimethylcyclopropane-1-carbonyl)-2,6-diazaspiro[3.4]octane-6,8-dicarboxamide], the IC50 was > 10000 nM.

With `CNC(=O)C(NC(=O)[C@@H]1CN(C(=O)c2cncs2)CC12CN(C(=O)[C@H]1CC1(C)C)C2)c1nc(C2CCCCC2)co1` (stereo partly drawn) [I-425], the IC50 fell in the range of 100 to 1000 nM.

In the case of `CC1(C)C[C@@H]1C(=O)N1CC2(CN(C(=O)c3cnn(Cc4ccccc4)c3)C[C@H]2C(=O)N[C@H]2CCCN(C(=O)c3ccccc3)C2)C1` [I-83A], the IC50 fell in the range of 1000 to 10000 nM.

`CNC(=O)[C@@H](NC(=O)[C@@H]1CN(C(=O)c2cnn(Cc3ccccc3)c2)CC12CN(C(=O)[C@H]1CC1(C)C)C2)[C@@H](C)OC[C@H]1CC[C@@H](O)CC1` [I-424]: the IC50 fell in the range of 10 to 100 nM.

With `C[C@@H](OCC1CCCCC1)[C@@H](COC1CCNCC1)NC(=O)[C@@H]1CN(C(=O)c2cncs2)CC12CN(C(=O)[C@H]1CC1(C)C)C2` [I-329], the IC50 was ≤ 10 nM.

For the compound `COC[C@H]1CCCN(C(=O)[C@@H](NC(=O)[C@@H]2CN(C(=O)c3cncs3)CC23CN(C(=O)[C@H]2CC2(C)C)C3)[C@@H](C)OC[C@H]2CC[C@H](OC(F)(F)F)CC2)C1` [I-435], the IC50 is ≤ 10 nM.

`CNC(=O)[C@@H](NC(=O)[C@@H]1CN(C(=O)c2cnc(COC)s2)CC12CN(C(=O)[C@H]1CC1(C)C)C2)[C@@H](C)OCC1CCCCC1` [I-145A]: the IC50 was 10 to 100 nM.

Take `CNC(=O)[C@@H](NC(=O)[C@H]1CN(Cc2cnco2)CC12CN(C(=O)[C@H]1CC1(C)C)C2)[C@@H](C)OCc1ccccc1` [I-78B]: the IC50 is > 10000 nM.

For the compound `CC1(C)C[C@@H]1C(=O)N1CC2(CN(C(=O)c3cnn(Cc4ccccc4)c3)C[C@H]2C(=O)NC[C@H]2CC[C@@H](C)CC2)C1` [I-388], the IC50 was > 10000 nM.

Consider `CC(C)O[C@H]1C[C@H](NC(=O)[C@@H]2CN(C(=O)c3cnn(Cc4ccccc4)c3)CC23CN(C(=O)[C@H]2CC2(C)C)C3)C1` [I-233], for which the IC50 is > 10000 nM.

As for `CNC(=O)[C@@H](NC(=O)[C@H]1CN(C(=O)c2scnc2C2CCCC2)CC12CN(C(=O)[C@H]1CC1(C)C)C2)[C@@H](C)OCC1CCCCC1` [I-224A], the IC50 was in the range of 1000 to 10000 nM.

As to `CC1(C)C[C@@H]1C(=O)N1CC2(CN(C(=O)c3cncs3)C[C@@H]2C(=O)N[C@@H](COCC2CCCCC2)C(=O)N2CCCCC2)C1` [I-293], the IC50 lay within 1000 to 10000 nM.

Take `CNC(=O)[C@@H](NC(=O)[C@H]1CN(Cc2cccnc2)CC12CN(C(=O)[C@H]1CC1(C)C)C2)[C@@H](C)OCc1ccccc1` [I-49B]: the IC50 is > 10000 nM.

With `CNC(=O)[C@@H](NC(=O)[C@H]1CN(Cc2ccncc2)CC12CN(C(=O)[C@H]1CC1(C)C)C2)[C@@H](C)OCc1ccccc1` [I-55B], the IC50 was > 10000 nM.

As for `CNC(=O)[C@@H](NC(=O)[C@@H]1CN(C(=O)c2cnn(CC3CCOCC3)c2)CC12CN(C(=O)[C@H]1CC1(C)C)C2)[C@@H](C)OCc1ccccc1` [I-95A], the IC50 lay within 100 to 1000 nM.

Regarding `CNC(=O)[C@@H](NC(=O)[C@H]1CN(C(=O)c2cnn(Cc3ccccc3)c2)CC12CN(C(=O)[C@H]1CC1(C)C)C2)C(C)(C)SCc1ccccc1` [I-171B], the IC50 was > 10000 nM.

In the case of `CNC(=O)[C@@H](NC(=O)[C@@H]1CN(C(=O)c2cnn(Cc3ccccc3)c2)CC12CN(C(=O)C(C)C)C2)[C@@H](C)OCc1ccccc1` [I-54A], the IC50 fell in the range of 100 to 1000 nM.

Regarding `COC(=O)c1ccc(C2CCN(C(=O)[C@@H](NC(=O)[C@@H]3CN(C(=O)c4cnn(Cc5ccccc5)c4)CC34CN(C(=O)[C@H]3CC3(C)C)C4)[C@@H](C)OCC3CCCCC3)CC2)cc1` [I-147], the IC50 is ≤ 10 nM.

`CNC(=O)[C@@H](NC(=O)[C@@H]1CN(C(=O)c2cncs2)CC12CN(Cc1ccco1)C2)[C@@H](C)OCC12CCC(CC1)OC2` [I-349]: the IC50 is > 10000 nM.

As for `CNC(=O)[C@@H](NC(=O)[C@@H]1CN(C(=O)c2cnn(Cc3ccccc3)c2)CC12CN(C(=O)NC(C)C)C2)[C@@H](C)OCC1CCCCC1` [I-267], the IC50 was in the range of 1000 to 10000 nM.

As for `CNC(=O)C(NC(=O)[C@@H]1CN(C(=O)c2cnn(Cc3ccccc3)c2)CC12CN(C(=O)[C@H]1CC1(C)C)C2)c1cccc(C2CCCCC2)n1` (stereo partly drawn) [I-391], the IC50 is ≤ 10 nM.

As for `CO[C@H]1COCC[C@@H]1NC(=O)[C@H]1CN(C(=O)c2cnn(Cc3ccccc3)c2)CC12CN(C(=O)[C@H]1CC1(C)C)C2` [I-131B], the IC50 is > 10000 nM.

`CNC(=O)[C@@H](NC(=O)[C@H]1CN(C(=O)c2ccncc2)CC12CN(C(=O)[C@H]1CC1(C)C)C2)[C@@H](C)OCc1ccccc1` [I-46B]: the IC50 was > 10000 nM.

For the compound `CC(O[C@H](C)[C@H](NC(=O)[C@@H]1CN(C(=O)c2cncs2)CC12CN(C(=O)[C@H]1CC1(C)C)C2)C(=O)N1CCC(F)(F)CC1)C1CCC(F)(F)CC1` (stereo partly drawn) [I-361], the IC50 was ≤ 10 nM.

As to `CNC(=O)[C@@H](NC(=O)[C@@H]1CN(C(=O)c2cnn(Cc3ccccc3)c2)CC12CN(C(=O)C(C)C1CC1)C2)[C@@H](C)OCc1ccccc1` (stereo partly drawn) [I-277], the IC50 lay in the range of 1000 to 10000 nM.

For the compound `C[C@@H](OCC1CCCCC1)[C@H](NC(=O)[C@H]1CN(C(=O)c2cn[nH]c2)CC12CN(C(=O)[C@H]1CC1(C)C)C2)C(=O)N1CCCCC1` [I-151B], the IC50 lay within 1000 to 10000 nM.

As for `CC1(C)C[C@@H]1C(=O)N1CC2(CN(C(=O)c3cnn(Cc4ccccc4)c3)C[C@H]2C(=O)N2CCN(CC3CCCCC3)CC2)C1` [I-237], the IC50 was in the range of 100 to 1000 nM.

Take `C[C@@H](OCc1ccccc1)[C@H](NC(=O)[C@@H]1CN(C(=O)c2cnn(Cc3ccccc3)c2)CC12CN(C(=O)[C@H]1CC1(C)C)C2)C(=O)N(C)C` [I-409]: the IC50 is ≤ 10 nM.

For `CNC(=O)[C@@H](NC(=O)[C@H]1CN(C(=O)c2scnc2C(C)(C)C)CC12CN(C(=O)[C@H]1CC1(C)C)C2)[C@@H](C)OCC1CCCCC1` [I-231B], the IC50 was > 10000 nM.

For `C[C@@H](OCc1ccccc1)[C@H](NC(=O)C1CN(C(=O)c2cnn(Cc3ccccc3)c2)CC12CN(C(=O)[C@H]1CC1(C)C)C2)C(=O)N1CCCCC1` (stereo partly drawn) [I-97, 6-(1-benzyl-1H-pyrazole-4-carbonyl)-N-((2S,3R)-3-(benzyloxy)-1-oxo-1-(piperidin-1-yl)butan-2-yl)-2-((S)-2,2-dimethylcyclopropanecarbonyl)-2,6-diazaspiro[3.4]octane-8-carboxamide], the IC50 was 10 to 100 nM.

Take `CNC(=O)[C@@H](NC(=O)[C@@H]1CN(C(=O)c2cnc(C(F)(F)F)s2)CC12CN(C(=O)[C@H]1CC1(C)C)C2)[C@@H](C)OCC1CCCCC1` [I-161A]: the IC50 was > 10000 nM.

`CNC(=O)[C@@H](NC(=O)[C@H]1CN(Cc2ccccn2)CC12CN(C(=O)[C@H]1CC1(C)C)C2)[C@@H](C)OCc1ccccc1` [I-40B]: the IC50 was > 10000 nM.

Take `C[C@@H](OCC12CCC(CC1)OC2)[C@H](NC(=O)[C@@H]1CN(C(=O)c2cncs2)CC12CN(C(=O)[C@H]1CC1(C)C)C2)C(=O)N1CCC[C@H](COC(F)(F)F)C1` [I-460]: the IC50 is ≤ 10 nM.

The values are drawn from patent publication US20240174680A1, “CDK2 INHIBITORS AND METHODS OF USING THE SAME” (Cedilla Therapeutics, Inc., priority 2021, published 2024).
